Measured values: paper PMC4726707, “Effect of Copper and Zinc on the Single Molecule Self-Affinity of Alzheimer’s Amyloid-β Peptides” (PLoS ONE, 2016)
“Also recorded” adds a separate entry of the source. Read-outs that look alike come from different tables or passages of the source.

Assays:
Aβ [1] = conditions: cited from earlier work
From the text: The role of metal ions on amyloid aggregation and toxicity has been studied extensively. […] Cu^2+ ions increase neurotoxicity by both accelerating amyloid aggregation and increasing oxidative stress. This increased propensity of Aβ to aggregate in a Cu^2+ rich environment has been attributed to Cu^2+ ions causing Aβ to move closer to its isoelectric point, thereby inducing aggregation. […] In this work, rather than determining the affinity of metal ions to the Aβ monomer, we calculated the self-affinity of two Aβ42 peptides in the presence of copper and zinc ions.

amyloid-β (1–42) (Aβ42) = target: T1, amyloid-β (1–42) (Aβ42) (Homo sapiens, UniProt P05067); experiment: Single molecule force spectroscopy / dynamic force spectroscopy (AFM) of Aβ-Aβ dimer dissociation, Friddle-De Yoreo model; assay type: binding; conditions: for change of Aβ-Aβ self-affinity / dimer dissociation constant by metal ion: 20 nM (nanomolar) metal ion vs aqueous HEPES buffer control; for change of association rate (kon) of Aβ-Aβ vs aqueous control: 20 nM metal ion, kon = koff/Kd; for Kd: read-out: chemical dissociation constant, Kd
T1 construct: purchased rPeptide (Bogart USA)
From the text: In this work we used single molecule force spectroscopy (SMFS) to further elucidate the mechanism of the very initial stage of amyloid aggregation—the dimerization of two peptides. SMFS is a nanoscale technique whereby an atomic force microscopy (AFM) tip is used to probe the unbinding of two molecules of interest—one bound to the surface, the other to the tip. When AFM tip is brought to the surface the binding between two Aβ monomers occur and when the tip is retracted the unbinding forces between two monomers are measured. To extract kinetic and thermodynamic parameters governing the system, the retraction velocity of the tip is varied. This iteration of SMFS is referred to as dynamic force spectroscopy (DFS).
We prepared our experiments in accordance with our previous force spectroscopy experiments, of which the methods are detailed extensively in [23]. Briefly, Veeco MLCT SiNi AFM cantilever were cleaned by soaking in ethanol and exposing to UV light for 30 minutes. […] The mica and cantilevers were then soaked for 3 hours in a solution of 3400 MW NHS-PEG-MAL (Laysan Bio, Alabaster GA) solution. […] The surface of the cantilever tip and mica surface were soaked in the Aβ solution for 30 minutes. Following rinsing, unreacted maleimide groups were quenched with b-merceptoethanol. Tips and mica were then rinsed and stored in HEPES buffer.
Typical cantilever spring constants were between 8 and 120 mN/m but varied with each individual experiment. Spring constants were measured using Hutter’s thermal noise method. A series of force curves were taken with an approach and retract velocity varying between 50 and 10,000 nm/s resulting in loading rates between 0.3 and 300 nN/s. Following the collection of an Aβ42 data set in HEPES buffer, a 20 nM metal ionic solution (Cu^2+ or Zn^2+) in HEPES buffer was added to the liquid cell of the AFM and additional force curves were collected for comparison.
JPK data analysis software was used to analyze force curves. […] The force curves were smoothed, the x-axis leveled, both axes set to 0, and the force curve corrected for cantilever bending to obtain tip-sample separation, z. A WLC fit was obtained for each force curve while rupture force and contour length data were recorded. Data was sorted in order of rupture force and the highest rupture force data were eliminated using Poisson statistics to eliminate force curves that were likely the result of simultaneous multiple unbinding events.
Loading rates were corrected to account for the effect of the PEG linker. We fit the Friddle-De Yoreo reversible binding equation to the entirety of the dataset (comprised of the rupture force and corrected loading rate of each force curve) using a Levenberg-Marquardt best fit algorithm in Origin 9.0 graphing software. For pooled datasets, we used the mean spring constant of the cantilevers used in the experiments. We extracted the equilibrium force, feq, the thermal scaling factor, fβ, and the kinetic off rate, koff(feq) at the equilibrium force as well as standard errors from the dataset using the graphing software. These parameters were then used to calculate parameters ΔG (the difference in free energy between the bound and free states), xβ (the width of the energy barrier), koff (the kinetic dissociation, or off- rate), and Kd (the dissociation constant) using the equations used in [34, 35].
Analysis of variance (ANOVA) testing was conducted on ΔG, xβ, koff, and Kd. Following the ANOVA test, a post hoc Welsh’s t-test was conducted to compare the parameters for the aqueous experiments compared to the copper experiments and for the aqueous environment experiments compared to the zinc experiments.

Aβ [2] = conditions: cited from earlier work; remark: listed apart in the source
From the text: Despite the well established effect ...

Aβ (1–42) = conditions: with Cu^2+ ions; cited from earlier work
From the text: Our previous results led us to hypothesize that since […] AD is largely a function of abnormal Aβ clearance, increased affinity of Aβ would make amyloid clearance considerably more problematic. In this work we used single molecule force spectroscopy (SMFS) to further elucidate the mechanism of the very initi ...

[Cu+2] [Cu^2+, copper]
Cu^2+-Aβ affinity (Aβ [1]): nanomolar to picomolar range
Cu^2+-Aβ affinity (Aβ [1]; listed as Copper): nano- to picomolar range
change of Aβ-Aβ self-affinity / dimer dissociation constant by metal ion (amyloid-β (1–42) (Aβ42); listed as copper): do not change the single molecule affinity of Aβ to another Aβ peptide in a statistically significant way; also recorded: does not change the dissociation constant by a statistically significant amount; also recorded: did not measure a significant effect
change of association rate (kon) of Aβ-Aβ vs aqueous control (amyloid-β (1–42) (Aβ42)): approximately half an order of magnitude higher; also recorded: approximately five times higher than the association rate in the control experiments
nucleation and elongation of amyloid fibril formation (Aβ [2]; substoichiometric concentrations of Cu^2+ ions): induce acceleration in both the nucleation and elongation phases of amyloid fibril formation
Aβ aggregation onset (Aβ [2]; trace concentrations of copper vs aqueous without metal ions): Aβ begins to aggregate instantly compared to the characteristic lag period
unbinding force between two Aβ (1–42) peptides (Aβ (1–42)): increased the unbinding force between two Aβ (1–42) peptides

amyloid-β (1–42) [Aβ-Aβ]
ΔG (free energy difference between bound and unbound states) for Aβ-Aβ unbinding (amyloid-β (1–42) (Aβ42); aqueous HEPES 50 mM buffer, pH 7.4, 150 mM NaCl, no metal ion added): 7.83 ± 3.03 kBT
Kd (amyloid-β (1–42) (Aβ42); control, Aβ dimerization in HEPES buffer): 402 µM
Kd (amyloid-β (1–42) (Aβ42); with 20 nM Cu^2+): 173 µM
ΔG (free energy difference between bound and unbound states) for Aβ-Aβ unbinding (amyloid-β (1–42) (Aβ42); with Cu^2+ [20nM] in HEPES buffer pH 7.4): 8.66 ± 1.62 kBT
ΔG (free energy difference between bound and unbound states) for Aβ-Aβ unbinding (amyloid-β (1–42) (Aβ42); with Zn^2+ [20nM] in HEPES buffer pH 7.4): 4.89 ± 1.35 kBT

[Zn+2] [Zn^2+, zinc]
change of Aβ-Aβ self-affinity / dimer dissociation constant by metal ion (amyloid-β (1–42) (Aβ42)): decreases the affinity of Aβ-Aβ interactions by an order of magnitude
change of Aβ-Aβ self-affinity / dimer dissociation constant by metal ion (amyloid-β (1–42) (Aβ42); listed as zinc): decrease the affinity of Aβ-Aβ by an order of magnitude; also recorded: increases the dimer dissociation constant (which corresponds to a decreased monomer-monomer chemical affinity) by an order of magnitude
change of association rate (kon) of Aβ-Aβ vs aqueous control (amyloid-β (1–42) (Aβ42)): half an order of magnitude lower; also recorded: one-fifth of the control experiment
change of height of the energy barrier (amyloid-β (1–42) (Aβ42); with Zn^2+ 20 nM vs aqueous control): decreased the height of the energy barrier
